# Reference: the supplement of paper PMC10307832
# What was measured:
# Assay in all cases: relative viability (nuclei count vs DMSO), 5 days (fraction); higher = more cells survive
# [1] = compound: CC1=NN=C(O1)C2=NN=C(C=C2)N3CCC(CC3)OC4=C(C=CC(=C4)F)Cl + CC1(C)CCC(c2ccc(Cl)cc2)=C(CN2CCN(c3ccc(C(=O)NS(=O)(=O)c4ccc(N[C@H](CCN5CCOCC5)CSc5ccccc5)c(S(=O)(=O)C(F)(F)F)c4)cc3)CC2)C1 [Navitoclax] (partner 0.5 µM)
# In short: (§1)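 Lung cancer cell lines were pin-tool dosed in 1536-well plates on the day after seeding, with either a lone drug or a fixed anchor-drug dose plus five library-drug doses (not always all listed) in √10 steps. Nuclei were counted on 4× images after 5 days. Relative viability is the ratio of treated-well to vehicle-well nuclei counts, with each value a median of duplicate plates.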
# [2] = compound: CC(C)C[C@@H](C(=O)N[C@H](C(=O)OC1CCCC1)c1ccccc1)[C@H](O)C(=O)NO [Tosedostat] + CC(=O)Nc1cccc(-n2c(=O)n(C3CC3)c(=O)c3c(Nc4ccc(I)cc4F)n(C)c(=O)c(C)c32)c1 [Trametinib] (partner 0.02 µM)
# In short: as §1
# [3] = compound: CC(C)C[C@@H](C(=O)N[C@H](C(=O)OC1CCCC1)c1ccccc1)[C@H](O)C(=O)NO [Tosedostat] + N=C(N)NC(=N)NCCc1ccccc1 [Phenformin] (partner 250 µM)
# In short: as §1
# [4] = compound: CC(C)C[C@@H](C(=O)N[C@H](C(=O)OC1CCCC1)c1ccccc1)[C@H](O)C(=O)NO [Tosedostat] + Nc1ncn([C@H]2C[C@H](O)[C@@H](CO)O2)c(=O)n1 [Decitabine] (partner 2 µM)
# In short: as §1
Cell Line,relative viability ([1]; first compound 0.253 µM),relative viability ([1]; first compound 0.8 µM),relative viability ([1]; first compound 2.53 µM),relative viability ([1]; first compound 8 µM),relative viability ([2]; first compound 0.02 µM),relative viability ([2]; first compound 0.06325 µM),relative viability ([2]; first compound 0.2 µM),relative viability ([2]; first compound 0.6325 µM),relative viability ([2]; first compound 2 µM),relative viability ([3]; first compound 0.02 µM),relative viability ([3]; first compound 0.06325 µM),relative viability ([3]; first compound 0.2 µM),relative viability ([3]; first compound 0.6325 µM),relative viability ([3]; first compound 2 µM),relative viability ([4]; first compound 0.02 µM),relative viability ([4]; first compound 0.06325 µM),relative viability ([4]; first compound 0.2 µM),relative viability ([4]; first compound 0.6325 µM),relative viability ([4]; first compound 2 µM)
NCI-H2170,0.464,0.421,0.556,0.417,0.945,0.971,0.925,0.894,0.915,0.409,0.424,0.381,0.396,0.408,0.454,0.499,0.491,0.421,0.453
NCI-H1437,0.571,0.66,0.564,0.46,0.552,0.523,0.631,0.469,0.547,0.28,0.28,0.295,0.332,0.299,0.537,0.569,0.58,0.566,0.564
NCI-H441,0.536,0.654,0.544,0.472,0.478,0.579,0.499,0.562,0.461,0.861,0.833,0.569,0.61,0.713,0.226,0.253,0.239,0.198,0.244
NCI-H2087,0.701,0.713,0.724,0.63,0.181,0.17,0.172,0.228,0.132,0.473,0.413,0.329,0.28,0.22,0.37,0.23,0.24,0.224,0.225
NCI-H647,0.744,0.704,0.821,0.679,0.452,0.485,0.425,0.622,0.515,0.56,0.506,0.45,0.434,0.39,0.332,0.367,0.286,0.404,0.313
SW 1573,1.03,0.84,0.851,0.922,0.59,0.537,0.553,0.472,0.505,0.417,0.364,0.302,0.336,0.342,0.675,0.504,0.482,0.451,0.415
HARA,0.451,0.392,0.393,0.352,0.85,0.636,0.91,0.745,0.631,0.505,0.383,0.433,0.326,0.35,0.583,0.583,0.427,0.442,0.457
